# From patent US20230381127A1, “COMPOSITIONS AND METHODS FOR MOOD ENHANCEMENT” (EPITRACKER, INC., priority 2020, published 2023)
# Assays:
# CB2 = target: T1, CB2 (Homo sapiens, UniProt P34972); assay: SAFETYscan E/IC50 ELECT functional assay, CB2 receptor agonist mode; format: cell-based; conditions: at 20 μM; relative to positive control CP 55940 assigned 100% activity
# T1 construct: purchased DiscoverX/Eurofins SAFETYscan E/IC50 ELECT
# Text: (§1) This study assessed potential pharmacologic targets of pentadecanoic acid. Specifically, this study examined agonist and antagonist activities of synthetic pentadecanoic acid across 78 assays using SAFETYscan E/IC50 ELECT (DiscoverX/Eurofins, Fremont, California). Briefly, a variety of standardized and optimized functional assays were used to assess pentadecanoic acid's pharmacologic targets, including G protein coupled receptors (ADORA2A, ADRA1A, ADRA2A, ADRB1, ADRB2, CB1, CB2, CCK1, D1, D2S, ETA, H1, H2, M1 M2, M3, OPRD1, OPRK1, OPRM1, 5HTR1A, 5HTR1B, 5HTR2A, 5HTR2B, AVPR1A), kinases (LCK, INSR, VEGFR2, ROCK1), transporters (DAT, NET, SERT), ion channels (GABAA, 5-HT3, CA1.2, HERG, KVLQT1/MINK, NA1.5, NMDAR1/2B, NACHR), nuclear receptors (AR, GR), and non-kinase enzymes (COX1, COX2, ACHE, MAOA, PDE3A, PDE4D2). Ten-point concentration curves for both agonist (EC50) and antagonist (IC50) activity were established for each target. Maximum activity (%) was also determined based on comparisons with internal positive controls, which were assigned 100% activity.
# [1] = Customer testimonials on stress and mood with fatty15 (C15:0) supplement; format: in vivo, human; conditions: daily oral supplementation 100 mg/day (fatty15); summary of testimonials in the 1st table
# Description: An odd-chain saturated fatty acid dietary supplement, containing an encapsulated pure (>98%) free fatty acid C15:0 powder and called fatty15™, is available as a consumer health product. Recommended dosing is a single, 100 mg capsule taken orally once a day. Customers were provided opportunities to share their experience, including through voluntary surveys and customer rating programs.
# [2] = 6-week voluntary electronic customer survey on stress and mood after daily fatty15 (C15:0) supplement; format: in vivo, human; conditions: 100 mg daily oral (fatty15 capsule), 6 weeks; 135 responders; response of 7 or greater on 1-10 scale = agreement
# Description: An odd-chain saturated fatty acid dietary supplement, containing an encapsulated pure (>98%) free fatty acid C15:0 powder and called fatty15™, was available as a consumer health product. Recommended dosing is a single, 100 mg capsule taken orally once a day.
# 6-Week Survey. Approximately six weeks following receipt of the C15:0 supplement, fattyl5, customers were provided a voluntary electronic questionnaire to evaluate potential near-term benefits, including the questions: “Overall how much would you agree with the following statement: Since starting fatty15, I have been feeling more calm and/or less stressed.” and “Overall how much would you agree with the following statement: Since starting fatty15, I generally feel happier and/or not as bothered by things that used to upset me.”
# Survey responders were asked to select a number between 1 and 10, in which 1=Strongly disagree and 10=Strongly agree. A response of 7 or greater was considered an agreement with the statement. Survey responders were also asked if fatty15 had become a part of their daily health routine.
# CB1 = target: T2, CB1 (Homo sapiens, UniProt P21554); assay: SAFETYscan E/IC50 ELECT functional assay, CB1 receptor agonist mode; format: cell-based; conditions: at 20 μM; relative to positive control CP 55940 assigned 100% activity
# T2 construct: purchased DiscoverX/Eurofins SAFETYscan E/IC50 ELECT
# Text: as §1
# T2 sequence (P21554 whole entry): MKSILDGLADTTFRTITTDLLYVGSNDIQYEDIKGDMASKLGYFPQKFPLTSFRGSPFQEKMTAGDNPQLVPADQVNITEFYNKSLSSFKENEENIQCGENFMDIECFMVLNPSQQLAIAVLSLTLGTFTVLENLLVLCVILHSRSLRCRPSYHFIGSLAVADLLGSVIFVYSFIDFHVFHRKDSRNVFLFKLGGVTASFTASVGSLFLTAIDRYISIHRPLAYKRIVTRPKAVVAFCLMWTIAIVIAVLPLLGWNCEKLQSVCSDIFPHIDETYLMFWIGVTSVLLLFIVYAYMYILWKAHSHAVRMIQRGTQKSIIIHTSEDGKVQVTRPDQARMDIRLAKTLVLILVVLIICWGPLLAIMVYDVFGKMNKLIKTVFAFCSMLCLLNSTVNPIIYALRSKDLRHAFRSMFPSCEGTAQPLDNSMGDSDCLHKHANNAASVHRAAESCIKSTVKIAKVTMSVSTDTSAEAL
# T1 sequence (P34972 whole entry): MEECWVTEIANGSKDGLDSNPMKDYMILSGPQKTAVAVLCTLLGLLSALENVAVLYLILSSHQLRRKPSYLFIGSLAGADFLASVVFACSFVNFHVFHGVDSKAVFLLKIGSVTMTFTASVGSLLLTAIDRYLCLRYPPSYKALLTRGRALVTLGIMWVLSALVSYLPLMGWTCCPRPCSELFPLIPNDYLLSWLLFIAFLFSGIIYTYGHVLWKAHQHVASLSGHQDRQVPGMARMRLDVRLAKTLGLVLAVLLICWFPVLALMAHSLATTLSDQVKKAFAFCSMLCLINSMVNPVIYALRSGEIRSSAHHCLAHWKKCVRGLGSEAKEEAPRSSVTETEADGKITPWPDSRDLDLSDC
smiles,measurement,setting,value
CCCCCCCCCCCCCCC(=O)O [pentadecanoic acid],CB2 agonist activity,CB2,18.2%
same,effect on stress and mood per customer testimonials,[1],can lower stress and calm and enhance mood
same,customers reporting feeling calmer and/or less stressed,[2],41%
same,customers reporting feeling generally happier and/or not as bothered by things that used to upset them,[2],37%
same,CB1 agonist activity,CB1,24.5%
